Reference: ChEMBL document CHEMBL4196228, “Potential Treatment of Acute Leukemia with Inhibitors of Menin/MLL Interaction” (ACS Med Chem Lett, 2018)
pIC50: −log10 of the molar value.

Legend:
[1] = target: T1, Menin/Histone-lysine N-methyltransferase MLL (Homo sapiens, UniProt O00255); assay: Inhibition of menin-MLL1 (unknown origin) protein-protein interaction by fluorescence polarization assay
MV4-11 = assay: Antiproliferative activity against human MV411 cell spheroids; assay type: functional, cell-based
MOLM-14 = assay: Antiproliferative activity against human MOLM14 cell spheroids; assay type: functional, cell-based
[2] = target: T1, Menin/Histone-lysine N-methyltransferase MLL; assay: Inhibition of menin-MLL1 (unknown origin) protein-protein interaction by HTRF assay

T1 sequence (O00255 whole entry): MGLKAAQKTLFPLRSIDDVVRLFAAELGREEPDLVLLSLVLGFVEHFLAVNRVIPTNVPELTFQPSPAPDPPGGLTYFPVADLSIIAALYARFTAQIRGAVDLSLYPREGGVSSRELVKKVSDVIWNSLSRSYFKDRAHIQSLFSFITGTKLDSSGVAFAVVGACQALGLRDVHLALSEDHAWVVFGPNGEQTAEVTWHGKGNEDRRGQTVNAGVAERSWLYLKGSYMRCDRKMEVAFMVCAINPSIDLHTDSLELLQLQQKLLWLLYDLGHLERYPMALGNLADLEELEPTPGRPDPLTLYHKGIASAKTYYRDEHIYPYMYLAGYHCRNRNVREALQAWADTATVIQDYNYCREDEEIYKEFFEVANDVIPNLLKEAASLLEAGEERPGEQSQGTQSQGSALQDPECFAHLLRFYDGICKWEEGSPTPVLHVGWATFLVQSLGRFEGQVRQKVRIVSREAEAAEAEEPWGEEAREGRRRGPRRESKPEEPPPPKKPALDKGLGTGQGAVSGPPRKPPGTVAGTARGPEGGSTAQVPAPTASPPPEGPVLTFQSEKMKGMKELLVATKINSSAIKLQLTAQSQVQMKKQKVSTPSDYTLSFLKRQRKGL
T1 sequence (Q03164 1-2718 partner limits assumed): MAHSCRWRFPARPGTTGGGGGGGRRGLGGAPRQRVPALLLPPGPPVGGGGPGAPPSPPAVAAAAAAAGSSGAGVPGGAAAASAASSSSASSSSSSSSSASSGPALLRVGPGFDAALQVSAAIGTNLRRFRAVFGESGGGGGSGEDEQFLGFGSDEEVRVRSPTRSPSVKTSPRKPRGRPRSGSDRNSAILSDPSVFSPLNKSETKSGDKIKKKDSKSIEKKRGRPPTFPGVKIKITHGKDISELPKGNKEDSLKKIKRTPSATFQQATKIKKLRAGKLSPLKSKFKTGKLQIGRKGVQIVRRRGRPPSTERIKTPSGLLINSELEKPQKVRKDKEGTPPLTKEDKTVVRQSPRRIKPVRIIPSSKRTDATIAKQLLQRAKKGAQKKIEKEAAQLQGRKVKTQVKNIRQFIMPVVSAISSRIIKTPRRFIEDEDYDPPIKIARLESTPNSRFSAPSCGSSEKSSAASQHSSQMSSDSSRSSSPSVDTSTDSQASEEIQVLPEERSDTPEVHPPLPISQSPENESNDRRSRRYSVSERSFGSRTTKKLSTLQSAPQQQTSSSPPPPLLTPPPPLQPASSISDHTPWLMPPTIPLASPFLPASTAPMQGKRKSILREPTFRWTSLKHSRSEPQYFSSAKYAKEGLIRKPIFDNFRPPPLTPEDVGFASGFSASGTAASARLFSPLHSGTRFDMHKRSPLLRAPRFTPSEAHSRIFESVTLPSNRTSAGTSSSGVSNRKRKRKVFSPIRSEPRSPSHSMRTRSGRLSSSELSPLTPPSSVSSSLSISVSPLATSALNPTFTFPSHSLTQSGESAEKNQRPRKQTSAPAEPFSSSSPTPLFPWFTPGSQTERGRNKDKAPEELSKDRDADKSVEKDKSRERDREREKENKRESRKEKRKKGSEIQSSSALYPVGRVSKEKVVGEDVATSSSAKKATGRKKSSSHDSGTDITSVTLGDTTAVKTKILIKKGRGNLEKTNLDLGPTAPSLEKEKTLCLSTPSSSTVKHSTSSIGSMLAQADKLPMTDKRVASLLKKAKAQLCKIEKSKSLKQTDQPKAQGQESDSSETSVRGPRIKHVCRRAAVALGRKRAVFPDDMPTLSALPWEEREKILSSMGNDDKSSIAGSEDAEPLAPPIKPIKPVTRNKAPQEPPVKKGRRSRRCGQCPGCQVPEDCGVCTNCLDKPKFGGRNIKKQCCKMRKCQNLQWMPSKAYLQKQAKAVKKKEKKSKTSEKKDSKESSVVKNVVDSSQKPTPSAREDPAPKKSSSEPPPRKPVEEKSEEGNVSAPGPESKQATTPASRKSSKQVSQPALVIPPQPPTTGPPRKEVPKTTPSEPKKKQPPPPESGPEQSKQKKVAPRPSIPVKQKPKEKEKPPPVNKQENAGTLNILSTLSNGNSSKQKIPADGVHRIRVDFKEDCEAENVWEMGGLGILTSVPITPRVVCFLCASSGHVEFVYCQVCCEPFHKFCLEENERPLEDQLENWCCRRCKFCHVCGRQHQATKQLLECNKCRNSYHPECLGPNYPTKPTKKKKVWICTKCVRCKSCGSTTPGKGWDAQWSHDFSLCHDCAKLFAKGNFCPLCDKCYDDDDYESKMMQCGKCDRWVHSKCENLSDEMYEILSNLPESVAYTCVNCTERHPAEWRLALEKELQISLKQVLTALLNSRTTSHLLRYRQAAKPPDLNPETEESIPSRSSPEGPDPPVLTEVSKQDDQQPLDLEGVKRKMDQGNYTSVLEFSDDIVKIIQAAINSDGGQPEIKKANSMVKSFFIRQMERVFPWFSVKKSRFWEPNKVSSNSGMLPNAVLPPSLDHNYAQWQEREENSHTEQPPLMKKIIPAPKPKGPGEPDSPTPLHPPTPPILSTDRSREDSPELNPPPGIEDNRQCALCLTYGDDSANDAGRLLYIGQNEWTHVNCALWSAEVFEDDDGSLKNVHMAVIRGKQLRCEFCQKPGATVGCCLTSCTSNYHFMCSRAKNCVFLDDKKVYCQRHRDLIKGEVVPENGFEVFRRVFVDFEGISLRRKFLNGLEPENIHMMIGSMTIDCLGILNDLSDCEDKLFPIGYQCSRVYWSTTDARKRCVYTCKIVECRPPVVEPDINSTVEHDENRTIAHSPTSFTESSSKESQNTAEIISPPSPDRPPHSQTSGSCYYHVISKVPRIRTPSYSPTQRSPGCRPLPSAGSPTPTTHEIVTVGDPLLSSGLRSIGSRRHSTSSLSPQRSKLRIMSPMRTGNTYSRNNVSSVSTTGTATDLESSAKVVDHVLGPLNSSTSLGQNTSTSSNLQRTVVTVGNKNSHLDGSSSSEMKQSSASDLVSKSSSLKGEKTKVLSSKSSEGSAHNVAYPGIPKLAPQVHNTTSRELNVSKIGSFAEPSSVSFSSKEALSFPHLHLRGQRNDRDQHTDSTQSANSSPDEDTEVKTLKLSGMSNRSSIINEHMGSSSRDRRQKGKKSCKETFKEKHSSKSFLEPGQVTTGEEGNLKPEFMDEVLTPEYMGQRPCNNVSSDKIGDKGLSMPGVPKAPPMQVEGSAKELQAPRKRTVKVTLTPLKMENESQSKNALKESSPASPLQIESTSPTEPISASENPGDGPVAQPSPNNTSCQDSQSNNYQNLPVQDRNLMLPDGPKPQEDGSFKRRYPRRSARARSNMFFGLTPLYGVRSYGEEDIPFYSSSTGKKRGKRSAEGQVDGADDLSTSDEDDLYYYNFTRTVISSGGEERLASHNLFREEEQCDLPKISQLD
T1 sequence (Q03164 2719-3969 partner limits assumed): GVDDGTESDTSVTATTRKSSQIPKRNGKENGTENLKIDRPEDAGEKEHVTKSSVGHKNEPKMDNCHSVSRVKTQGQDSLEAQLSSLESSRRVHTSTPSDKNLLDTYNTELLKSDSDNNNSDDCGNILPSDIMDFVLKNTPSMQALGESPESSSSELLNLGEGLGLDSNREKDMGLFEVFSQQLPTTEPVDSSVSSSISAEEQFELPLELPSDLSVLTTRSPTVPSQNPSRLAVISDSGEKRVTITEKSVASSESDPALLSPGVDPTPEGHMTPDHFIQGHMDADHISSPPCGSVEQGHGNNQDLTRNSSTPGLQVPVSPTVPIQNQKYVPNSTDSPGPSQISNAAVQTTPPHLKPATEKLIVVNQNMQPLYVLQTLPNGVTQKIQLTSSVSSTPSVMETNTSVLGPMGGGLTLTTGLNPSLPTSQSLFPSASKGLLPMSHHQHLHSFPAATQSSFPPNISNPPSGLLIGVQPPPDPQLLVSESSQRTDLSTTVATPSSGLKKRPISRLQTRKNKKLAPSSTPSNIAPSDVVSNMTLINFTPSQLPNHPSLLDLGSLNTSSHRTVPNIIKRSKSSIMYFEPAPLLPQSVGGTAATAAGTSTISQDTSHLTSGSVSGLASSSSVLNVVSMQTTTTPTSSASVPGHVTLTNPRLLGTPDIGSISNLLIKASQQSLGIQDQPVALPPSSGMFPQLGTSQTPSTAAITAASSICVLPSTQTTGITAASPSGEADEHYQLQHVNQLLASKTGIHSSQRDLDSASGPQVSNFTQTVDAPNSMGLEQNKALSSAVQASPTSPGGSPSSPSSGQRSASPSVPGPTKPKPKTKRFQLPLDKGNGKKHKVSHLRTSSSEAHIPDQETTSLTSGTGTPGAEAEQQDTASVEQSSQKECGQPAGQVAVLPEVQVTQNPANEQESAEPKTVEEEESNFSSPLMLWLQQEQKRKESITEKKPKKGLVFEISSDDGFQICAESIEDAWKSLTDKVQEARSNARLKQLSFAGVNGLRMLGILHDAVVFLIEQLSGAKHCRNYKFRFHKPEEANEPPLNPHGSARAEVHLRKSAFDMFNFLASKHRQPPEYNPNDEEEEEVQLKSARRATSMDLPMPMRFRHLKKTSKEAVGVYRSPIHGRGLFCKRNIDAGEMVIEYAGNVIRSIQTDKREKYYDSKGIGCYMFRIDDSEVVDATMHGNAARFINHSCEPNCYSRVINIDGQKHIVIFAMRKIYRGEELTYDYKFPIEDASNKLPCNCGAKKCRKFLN

SMILES | pIC50 [1] | pIC50 (MV4-11) | pIC50 (MOLM-14) | pIC50 [2]
CC(C)[C@H](C1CNC1)N1CC2(CCN(c3ncnc4sc(CC(F)(F)F)cc34)C2)C1 | 7.68 | 7.10 | 6.07 | 8.10
O=C([C@@H]1CC2(CC2)CN1)N1CC2(CCN(c3ncnc4sc(CC(F)(F)F)cc34)C2)C1 | 7.04 | 5.59 | 4.95 | 6.99

Now from value to compound:

pIC50 [1] | pIC50 (MV4-11) | pIC50 (MOLM-14) | pIC50 [2] | SMILES
7.25 | 5.43 | 5.34 | 6.84 | FC(F)(F)Cc1cc2c(N3CCC4(CN(Cc5ccccc5)C4)C3)ncnc2s1
6.92 | 5.68 | < 4.82 | 6.41 | Cn1cc2c(n1)CCCC2N1CC2(CCN(c3ncnc4sc(CC(F)(F)F)cc34)C2)C1 (centres undefined)
6.96 | 5.47 | 4.99 | 6.72 | CC(C)[C@@H](C1CNC1)N1CC2(CCN(c3ncnc4sc(CC(F)(F)F)cc34)C2)C1
6.85 | 5.41 | 5.11 | 6.64 | FC(F)(F)Cc1cc2c(N3CCCC4(CCN(Cc5ccccc5)C4)C3)ncnc2s1 (centres undefined)
